Drawing on US20260022142A1, “MACROCYCLIC IMMUNOMODULATORS” (Bristol-Myers Squibb Company, priority 2022, published 2026), this text covers IC50 for 13 molecules.

Bridge positions count the residues as written; N and C are the ends. Square brackets hold non-standard residues; d marks the D form. Peptide text beside a SMILES is read from it. * marks the point of attachment. Phe(4-COOH) = N[C@@H](Cc1ccc(C(=O)O)cc1)C(=O)O; Bip = N[C@@H](Cc1ccc(-c2ccccc2)cc1)C(=O)O; Phe(3-Me) = Cc1cccc(C[C@H](N)C(=O)O)c1; Cha = N[C@@H](CC1CCCCC1)C(=O)O; Carboxymethyl = O=C(O)C*; Orn = NCCC[C@H](N)C(=O)O; Aun = NCCCCCCCCCCC(=O)O; Dab = NCC[C@H](N)C(=O)O; Dap = NC[C@H](N)C(=O)O; AEEA = NCCOCCOCC(=O)O

The assay deals with T1, PD-1/PD-L1 interaction (PE-labeled human PD-L1-Ig binding to Jurkat cell line over-expressing human PD-1) (Homo sapiens, UniProt Q15116).
T1 construct: expressed in transfected cells; host or cells: Jurkat
T1 sequence (Q15116 25-288): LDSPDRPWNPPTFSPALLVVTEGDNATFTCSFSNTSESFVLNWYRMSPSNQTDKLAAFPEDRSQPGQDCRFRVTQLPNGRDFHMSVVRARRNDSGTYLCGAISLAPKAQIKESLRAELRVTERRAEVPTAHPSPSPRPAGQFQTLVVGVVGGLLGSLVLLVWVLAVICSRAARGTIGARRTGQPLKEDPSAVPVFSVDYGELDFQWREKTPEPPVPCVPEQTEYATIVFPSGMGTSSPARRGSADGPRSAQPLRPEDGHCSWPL
Briefly: Jurkat-PD-1 Cell Binding High-Content Screening Assay (CBA). As to conditions: Jurkat cell line over-expressing human PD-1; PE-labeled PD-L1-Ig 20 nM final; read-out: Jurkat hPD1-PDL1 IC50. Format: cell-based. A digest of the protocol:
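Read-out is high-content imaging of cell-bound phycoerythrin-tagged PD-L1-Ig on fixed, Hoechst-counterstained Jurkat cells that over-express human PD-1. Compound exposure lasts 2 h at 37° C before the labeled ligand (20 nM final) is added for a further hour.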
In general, IC50 refers to the concentration that gives 50% inhibition. Turning to `Cc1cccc(C[C@@H]2NC(=O)[C@H](CC(=O)O)NC(=O)[C@H](Cc3ccc(OCC(=O)O)cc3)NC(=O)[C@H](CN)NC(=O)CSC[C@@H](C(=O)N[C@@H](CCN)C(=O)NCCCCCCCCCCC(=O)O)NC(=O)[C@H](CCCNC(=N)N)NC(=O)[C@H](Cc3ccc(O)cc3)NC(=O)[C@H](CC3CCCCC3)NC(=O)[C@H](CCN)NC(=O)[C@@H](CC(C)C)NC(=O)[C@H](CCCN)NC(=O)[C@H](Cc3ccc(O)cc3)NC(=O)[C@H](Cc3ccc(-c4ccccc4)cc3)NC(=O)[C@H](Cc3ccc(O)cc3)NC2=O)c1` [Compound 2512] ({CH2CO}-[Dap]Y(Carboxymethyl)D[Phe(3-Me)]Y[Bip]Y[Orn][dL][Dab][Cha]YRC[Dab][Aun]-OH; thioether N-14), the half-inhibitory concentration (IC50) stood at 33.4 nM.
Consider `CC(C)C[C@H]1NC(=O)[C@H](CCCN)NC(=O)[C@H](Cc2ccc(O)cc2)NC(=O)[C@H](Cc2ccc(-c3ccccc3)cc2)NC(=O)[C@H](Cc2ccc(O)cc2)NC(=O)[C@H](Cc2c[nH]c3ccccc23)NC(=O)[C@H](CC(=O)O)NC(=O)[C@H](Cc2ccc(OCC(=O)O)cc2)NC(=O)[C@H](Cc2ccc(OCC(=O)O)cc2)NC(=O)CSC[C@@H](C(=O)N[C@@H](CCN)C(=O)NCCCCCCCCCCC(=O)O)NC(=O)[C@H](CCCN)NC(=O)[C@H](Cc2ccc(O)cc2)NC(=O)[C@H](CC2CCCCC2)NC(=O)[C@H](CCN)NC1=O` [Compound 2513] ({CH2CO}-Y(Carboxymethyl)Y(Carboxymethyl)DWY[Bip]Y[Orn][dL][Dab][Cha]Y[Orn]C[Dab][Aun]-OH; thioether N-14), for which the IC50 is 81.3 nM.
With `CC(C)C[C@H]1NC(=O)[C@H](CCCN)NC(=O)[C@H](Cc2ccc(O)cc2)NC(=O)[C@H](Cc2ccc(-c3ccccc3)cc2)NC(=O)[C@H](Cc2ccc(O)cc2)NC(=O)[C@H](Cc2c[nH]c3ccccc23)NC(=O)[C@H](CC(=O)O)NC(=O)[C@H](Cc2ccc(OCC(=O)O)cc2)NC(=O)[C@H](Cc2ccc(OCC(=O)O)cc2)NC(=O)CSC[C@@H](C(=O)N[C@@H](CCN)C(=O)NCCCCCCCCCCC(=O)O)NC(=O)[C@H](CN)NC(=O)[C@H](Cc2ccc(O)cc2)NC(=O)[C@H](CC2CCCCC2)NC(=O)[C@H](CCN)NC1=O` [Compound 2514] ({CH2CO}-Y(Carboxymethyl)Y(Carboxymethyl)DWY[Bip]Y[Orn][dL][Dab][Cha]Y[Dap]C[Dab][Aun]-OH; thioether N-14) the figure was 49.7 nM; with `CC(C)C[C@H]1NC(=O)[C@H](CCCN)NC(=O)[C@H](Cc2ccc(O)cc2)NC(=O)[C@H](Cc2ccc(-c3ccccc3)cc2)NC(=O)[C@H](Cc2ccc(O)cc2)NC(=O)[C@H](Cc2c[nH]c3ccccc23)NC(=O)[C@H](CC(=O)O)NC(=O)[C@H](Cc2ccc(C(=O)O)cc2)NC(=O)[C@H](Cc2ccc(OCC(=O)O)cc2)NC(=O)CSC[C@@H](C(=O)NCCOCCOCC(=O)NCCCCCCCCCCC(=O)O)NC(=O)[C@H](CCCCN)NC(=O)[C@H](Cc2ccc(O)cc2)NC(=O)[C@H](CC2CCCCC2)NC(=O)[C@H](CCN)NC1=O` [Compound 2515] ({CH2CO}-Y(Carboxymethyl)[Phe(4-COOH)]DWY[Bip]Y[Orn][dL][Dab][Cha]YKC[AEEA][Aun]-OH; thioether N-14), 40.4 nM.
Turning to `CC(C)C[C@H]1NC(=O)[C@H](CCCN)NC(=O)[C@H](Cc2ccc(O)cc2)NC(=O)[C@H](Cc2ccc(-c3ccccc3)cc2)NC(=O)[C@H](Cc2ccc(O)cc2)NC(=O)[C@H](Cc2c[nH]c3ccccc23)NC(=O)[C@H](CC(=O)O)NC(=O)[C@H](Cc2ccc(OCC(=O)O)cc2)NC(=O)[C@H](Cc2ccc(OCC(=O)O)cc2)NC(=O)CSC[C@@H](C(=O)NCCOCCOCC(=O)NCCCCCCCCCCC(=O)O)NC(=O)[C@H](CCCNC(=N)N)NC(=O)[C@H](Cc2ccc(O)cc2)NC(=O)[C@H](CC2CCCCC2)NC(=O)[C@H](CCN)NC1=O` [Compound 2516] ({CH2CO}-Y(Carboxymethyl)Y(Carboxymethyl)DWY[Bip]Y[Orn][dL][Dab][Cha]YRC[AEEA][Aun]-OH; thioether N-14), the IC50 is 126 nM.
As for `CC(C)C[C@H]1NC(=O)[C@H](CCCN)NC(=O)[C@H](Cc2ccc(O)cc2)NC(=O)[C@H](Cc2ccc(-c3ccccc3)cc2)NC(=O)[C@H](Cc2ccc(O)cc2)NC(=O)[C@H](Cc2c[nH]c3ccccc23)NC(=O)[C@H](CC(=O)O)NC(=O)[C@H](Cc2ccc(OCC(=O)O)cc2)NC(=O)[C@H](CN)NC(=O)CSC[C@@H](C(=O)NCCOCCOCC(=O)NCCCCCCCCCCC(=O)O)NC(=O)[C@H](CCCCN)NC(=O)[C@H](Cc2ccc(O)cc2)NC(=O)[C@H](CC2CCCCC2)NC(=O)[C@H](CCN)NC1=O` [Compound 2517] ({CH2CO}-[Dap]Y(Carboxymethyl)DWY[Bip]Y[Orn][dL][Dab][Cha]YKC[AEEA][Aun]-OH; thioether N-14), the IC50 was 274 nM.
With `Cc1cccc(C[C@@H]2NC(=O)[C@H](CC(=O)O)NC(=O)[C@H](Cc3ccc(OCC(=O)O)cc3)NC(=O)[C@H](CN)NC(=O)CSC[C@@H](C(=O)NCCOCCOCC(=O)NCCCCCCCCCCC(=O)O)NC(=O)[C@H](CN)NC(=O)[C@H](Cc3ccc(O)cc3)NC(=O)[C@H](CC3CCCCC3)NC(=O)[C@H](CCN)NC(=O)[C@@H](CC(C)C)NC(=O)[C@H](CCCN)NC(=O)[C@H](Cc3ccc(O)cc3)NC(=O)[C@H](Cc3ccc(-c4ccccc4)cc3)NC(=O)[C@H](Cc3ccc(O)cc3)NC2=O)c1` [Compound 2518] ({CH2CO}-[Dap]Y(Carboxymethyl)D[Phe(3-Me)]Y[Bip]Y[Orn][dL][Dab][Cha]Y[Dap]C[AEEA][Aun]-OH; thioether N-14), the IC50 worked out at 207 nM.
As for `Cc1cccc(C[C@@H]2NC(=O)[C@H](CC(=O)O)NC(=O)[C@H](Cc3ccc(OCC(=O)O)cc3)NC(=O)[C@H](CN)NC(=O)CSC[C@@H](C(=O)NCCOCCOCC(=O)NCCCCCCCCCCC(=O)O)NC(=O)[C@H](CCCN)NC(=O)[C@H](Cc3ccc(O)cc3)NC(=O)[C@H](CC3CCCCC3)NC(=O)[C@H](CCN)NC(=O)[C@@H](CC(C)C)NC(=O)[C@H](CCCN)NC(=O)[C@H](Cc3ccc(O)cc3)NC(=O)[C@H](Cc3ccc(-c4ccccc4)cc3)NC(=O)[C@H](Cc3ccc(O)cc3)NC2=O)c1` [Compound 2519] ({CH2CO}-[Dap]Y(Carboxymethyl)D[Phe(3-Me)]Y[Bip]Y[Orn][dL][Dab][Cha]Y[Orn]C[AEEA][Aun]-OH; thioether N-14), the IC50 amounted to 152 nM.
In the case of `Cc1cccc(C[C@@H]2NC(=O)[C@H](CC(=O)O)NC(=O)[C@H](Cc3ccc(OCC(=O)O)cc3)NC(=O)[C@H](CN)NC(=O)CSC[C@@H](C(=O)NCCOCCOCC(=O)NCCCCCCCCCCC(=O)O)NC(=O)[C@H](CCCNC(=N)N)NC(=O)[C@H](Cc3ccc(O)cc3)NC(=O)[C@H](CC3CCCCC3)NC(=O)[C@H](CCN)NC(=O)[C@@H](CC(C)C)NC(=O)[C@H](CCCN)NC(=O)[C@H](Cc3ccc(O)cc3)NC(=O)[C@H](Cc3ccc(-c4ccccc4)cc3)NC(=O)[C@H](Cc3ccc(O)cc3)NC2=O)c1` [Compound 2520] ({CH2CO}-[Dap]Y(Carboxymethyl)D[Phe(3-Me)]Y[Bip]Y[Orn][dL][Dab][Cha]YRC[AEEA][Aun]-OH; thioether N-14), the IC50 was determined as 233 nM.
With `CC(C)C[C@H]1NC(=O)[C@H](CCCN)NC(=O)[C@H](Cc2ccc(O)cc2)NC(=O)[C@H](Cc2ccc(-c3ccccc3)cc2)NC(=O)[C@H](Cc2ccc(O)cc2)NC(=O)[C@H](Cc2c[nH]c3ccccc23)NC(=O)[C@H](CC(=O)O)NC(=O)[C@H](Cc2ccc(OCC(=O)O)cc2)NC(=O)[C@H](Cc2ccc(OCC(=O)O)cc2)NC(=O)CSC[C@@H](C(=O)NCCOCCOCC(=O)NCCCCCCCCCCC(=O)O)NC(=O)[C@H](CCCN)NC(=O)[C@H](Cc2ccc(O)cc2)NC(=O)[C@H](CC2CCCCC2)NC(=O)[C@H](CCN)NC1=O` [Compound 2521] ({CH2CO}-Y(Carboxymethyl)Y(Carboxymethyl)DWY[Bip]Y[Orn][dL][Dab][Cha]Y[Orn]C[AEEA][Aun]-OH; thioether N-14), the IC50 is 89.1 nM.
`CC(C)C[C@H]1NC(=O)[C@H](CCCN)NC(=O)[C@H](Cc2ccc(O)cc2)NC(=O)[C@H](Cc2ccc(-c3ccccc3)cc2)NC(=O)[C@H](Cc2ccc(O)cc2)NC(=O)[C@H](Cc2c[nH]c3ccccc23)NC(=O)[C@H](CC(=O)O)NC(=O)[C@H](Cc2ccc(OCC(=O)O)cc2)NC(=O)[C@H](Cc2ccc(OCC(=O)O)cc2)NC(=O)CSC[C@@H](C(=O)NCCOCCOCC(=O)NCCCCCCCCCCC(=O)O)NC(=O)[C@H](CN)NC(=O)[C@H](Cc2ccc(O)cc2)NC(=O)[C@H](CC2CCCCC2)NC(=O)[C@H](CCN)NC1=O` [Compound 2522] ({CH2CO}-Y(Carboxymethyl)Y(Carboxymethyl)DWY[Bip]Y[Orn][dL][Dab][Cha]Y[Dap]C[AEEA][Aun]-OH; thioether N-14): the IC50 stood at 340 nM.
For the molecule `CC(C)C[C@H]1NC(=O)[C@H](CCCN)NC(=O)[C@H](C(C)C)NC(=O)[C@H](Cc2ccc(-c3ccccc3)cc2)NC(=O)[C@H](C(C)C)NC(=O)[C@H](Cc2c[nH]c3ccccc23)NC(=O)[C@H](CC(=O)O)NC(=O)[C@H](Cc2ccc(C(=O)O)cc2)NC(=O)[C@H](Cc2ccc(OCC(=O)O)cc2)NC(=O)CSC[C@@H](C(=O)N[C@@H](CCCCN)C(=O)NCCOCCOCC(=O)NCCCCCCCCCCC(=O)O)NC(=O)[C@H](CCCCN)NC(=O)[C@H](C(C)C)NC(=O)[C@H](CC2CCCCC2)NC(=O)[C@H](CCN)NC1=O` [Compound 2523] ({CH2CO}-Y(Carboxymethyl)[Phe(4-COOH)]DWV[Bip]V[Orn][dL][Dab][Cha]VKCK[AEEA][Aun]-OH; thioether N-14), the IC50 is 7.6 nM.
Next, `CC(C)C[C@H]1NC(=O)[C@H](CCCN)NC(=O)[C@H](C(C)C)NC(=O)[C@H](Cc2ccc(-c3ccccc3)cc2)NC(=O)[C@H](C(C)C)NC(=O)[C@H](Cc2c[nH]c3ccccc23)NC(=O)[C@H](CC(=O)O)NC(=O)[C@H](Cc2ccc(OCC(=O)O)cc2)NC(=O)[C@H](CN)NC(=O)CSC[C@@H](C(=O)N[C@@H](CCCCN)C(=O)NCCOCCOCC(=O)NCCCCCCCCCCC(=O)O)NC(=O)[C@H](CCCCN)NC(=O)[C@H](C(C)C)NC(=O)[C@H](CC2CCCCC2)NC(=O)[C@H](CCN)NC1=O` [Compound 2525] ({CH2CO}-[Dap]Y(Carboxymethyl)DWV[Bip]V[Orn][dL][Dab][Cha]VKCK[AEEA][Aun]-OH; thioether N-14): 16.5 nM.
